Measurements published in ChEMBL document CHEMBL4706658, “Discovery and Biological Evaluation of N-Methyl-pyrrolo[2,3-b]pyridine-5-carboxamide Derivatives as JAK1-Selective Inhibitors” (J Med Chem, 2021).
Active and inactive are the calls of the source. No cut-off for these calls is given here.

Experiments:
[1] = molecular target: T1, Tyrosine-protein kinase JAK1 (Homo sapiens, UniProt P23458)
Description: Inhibition of recombinant JAK1 (unknown origin) using GFP-STAT1 as substrate incubated for 1 hr followed by anti-pSTAT1 antibody addition and measured after 30 mins by Lanthascreen TR-FRET assay

[2] = molecular target: T2, Non-receptor tyrosine-protein kinase TYK2 (Homo sapiens, UniProt P29597)
Description: Inhibition of recombinant TYK2 (unknown origin) using GFP-STAT1 as substrate incubated for 1 hr followed by anti-pSTAT1 antibody addition and measured after 30 mins by Lanthascreen TR-FRET assay

[3] = molecular target: T3, Tyrosine-protein kinase JAK2 (Homo sapiens, UniProt O60674)
Description: Inhibition of recombinant JAK2 (unknown origin) using GFP-STAT1 as substrate incubated for 1 hr followed by anti-pSTAT1 antibody addition and measured after 30 mins by Lanthascreen TR-FRET assay

in vitro [4] = details: human, microsomes
Description: Metabolic stability in human liver microsomes assessed as parent compound remaining at 10 uM measured after 30 mins relative to control

in vitro [5] = details: human, lx2
CYP2C19 = CYP2C19 (Homo sapiens, UniProt P33261); experiment: in vitro
Description: Inhibition of CYP2C19 (unknown origin) at 10 uM relative to control

[6] = molecular target: Vascular endothelial growth factor receptor 1 (Homo sapiens, UniProt P17948)
in vitro [7] = details: dog, MDCK
Description: Permeability of compound across basolateral to apical side in MDCK cells at 10 uM

CYP2D6 = CYP2D6 (Homo sapiens, UniProt P10635); experiment: in vitro
Description: Inhibition of CYP2D6 (unknown origin) at 10 uM relative to control

CYP3A4 = CYP3A4 (Homo sapiens, UniProt P08684); experiment: in vitro
in vitro [8] = details: rat, microsomes
Description: Metabolic stability in rat liver microsomes assessed as parent compound remaining at 10 uM measured after 30 mins relative to control

CYP1A2 = molecular target: T4, CYP1A2 (Homo sapiens, UniProt P05177); experiment: in vitro
T4 sequence (P05177 whole entry): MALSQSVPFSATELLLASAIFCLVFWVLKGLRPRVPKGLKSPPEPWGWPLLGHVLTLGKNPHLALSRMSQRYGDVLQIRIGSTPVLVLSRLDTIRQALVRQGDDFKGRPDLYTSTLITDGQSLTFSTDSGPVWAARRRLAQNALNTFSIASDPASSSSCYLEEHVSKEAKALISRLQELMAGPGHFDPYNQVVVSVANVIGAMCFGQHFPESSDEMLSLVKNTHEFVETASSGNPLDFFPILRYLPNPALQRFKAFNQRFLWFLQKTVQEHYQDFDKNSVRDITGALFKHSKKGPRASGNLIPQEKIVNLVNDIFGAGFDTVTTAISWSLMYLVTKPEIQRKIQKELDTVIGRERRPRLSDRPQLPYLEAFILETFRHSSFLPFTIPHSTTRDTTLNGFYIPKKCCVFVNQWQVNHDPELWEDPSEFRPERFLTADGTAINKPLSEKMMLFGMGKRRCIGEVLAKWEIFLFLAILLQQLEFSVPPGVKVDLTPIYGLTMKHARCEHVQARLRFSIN
Description: Inhibition of CYP1A2 (unknown origin) at 10 uM relative to control

CYP2C9 = CYP2C9 (Homo sapiens, UniProt P11712); experiment: in vitro
Description: Inhibition of CYP2C9 (unknown origin) at 10 uM relative to control

in vitro [9] = details: rat, plasma
Description: Stability in rat plasma assessed as compound remaining at 2 uM measured after 2 hrs relative to control

in vitro [10] = details: dog, MDCK; remark: listed apart in the source
Description: Permeability of compound across apical to basolateral side in MDCK cells at 10 uM

in vitro [11] = details: mouse, microsomes
Description: Metabolic stability in mouse liver microsomes assessed as parent compound remaining at 10 uM measured after 30 mins relative to control

in vitro [12] = details: human, plasma
Description: Stability in human plasma assessed as compound remaining at 2 uM measured after 2 hrs relative to control

cells = type: functional, LX2; details: Homo sapiens, LX-2, 72 h; time hrs <=72
[13] = molecular target: T2, Non-receptor tyrosine-protein kinase TYK2; details: BaF3
Description: Inhibition of TYK2 (unknown origin) transfected in mouse BAF3 cells assessed as cell growth inhibition incubated for 72 hrs by CCK8 assay

[14] = molecular target: T5, Tyrosine-protein kinase JAK3 (Homo sapiens) (UniProt P52333); details: BaF3
T5 sequence (whole entry): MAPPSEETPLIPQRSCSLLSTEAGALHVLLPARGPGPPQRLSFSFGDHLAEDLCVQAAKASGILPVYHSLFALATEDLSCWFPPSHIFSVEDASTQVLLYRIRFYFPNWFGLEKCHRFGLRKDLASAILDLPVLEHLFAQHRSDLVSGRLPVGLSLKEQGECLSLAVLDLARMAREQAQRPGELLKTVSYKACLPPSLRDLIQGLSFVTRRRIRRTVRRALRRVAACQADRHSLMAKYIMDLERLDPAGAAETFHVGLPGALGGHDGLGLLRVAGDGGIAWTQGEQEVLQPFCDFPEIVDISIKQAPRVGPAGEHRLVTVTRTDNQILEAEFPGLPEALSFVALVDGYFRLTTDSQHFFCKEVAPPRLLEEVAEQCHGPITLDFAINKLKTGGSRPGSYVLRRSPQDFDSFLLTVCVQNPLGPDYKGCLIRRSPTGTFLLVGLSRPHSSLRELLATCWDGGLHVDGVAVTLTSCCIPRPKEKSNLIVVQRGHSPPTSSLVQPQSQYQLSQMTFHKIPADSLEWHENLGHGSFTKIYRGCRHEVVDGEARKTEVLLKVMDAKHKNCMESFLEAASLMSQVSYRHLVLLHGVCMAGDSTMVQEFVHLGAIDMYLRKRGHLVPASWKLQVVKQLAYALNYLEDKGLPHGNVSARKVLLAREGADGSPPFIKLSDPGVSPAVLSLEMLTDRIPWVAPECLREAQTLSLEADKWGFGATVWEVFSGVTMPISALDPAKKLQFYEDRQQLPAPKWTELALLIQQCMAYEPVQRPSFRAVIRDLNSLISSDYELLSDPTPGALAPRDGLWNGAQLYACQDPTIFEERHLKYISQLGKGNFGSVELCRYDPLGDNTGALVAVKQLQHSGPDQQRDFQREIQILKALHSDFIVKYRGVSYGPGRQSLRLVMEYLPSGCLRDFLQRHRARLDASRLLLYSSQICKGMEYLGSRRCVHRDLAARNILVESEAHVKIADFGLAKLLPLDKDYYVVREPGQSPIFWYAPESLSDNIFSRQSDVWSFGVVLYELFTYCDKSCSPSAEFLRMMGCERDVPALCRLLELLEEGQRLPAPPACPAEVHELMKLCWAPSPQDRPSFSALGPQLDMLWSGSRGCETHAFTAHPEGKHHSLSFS
Description: Inhibition of JAK3 (unknown origin) transfected in mouse BAF3 cells assessed as cell growth inhibition incubated for 72 hrs by CCK8 assay

[15] = molecular target: T1, Tyrosine-protein kinase JAK1; details: BaF3
Description: Inhibition of JAK1 (unknown origin) transfected in mouse BAF3 cells assessed as cell growth inhibition incubated for 72 hrs by CCK8 assay

[16] = molecular target: T3, Tyrosine-protein kinase JAK2; details: BaF3
Description: Inhibition of JAK2 (unknown origin) transfected in mouse BAF3 cells assessed as cell growth inhibition incubated for 72 hrs by CCK8 assay

LX2 [17] = details: Homo sapiens, dose 500.0 nM
LX2 [18] = details: Homo sapiens, dose lower […], dose upper 500.0 nM
LX2 [19] = details: Homo sapiens, dose 500.0 nM; remark: listed apart in the source
LX2 [20] = details: Homo sapiens, dose 500.0 nM; remark: listed apart in the source

T2 sequence (P29597 whole entry): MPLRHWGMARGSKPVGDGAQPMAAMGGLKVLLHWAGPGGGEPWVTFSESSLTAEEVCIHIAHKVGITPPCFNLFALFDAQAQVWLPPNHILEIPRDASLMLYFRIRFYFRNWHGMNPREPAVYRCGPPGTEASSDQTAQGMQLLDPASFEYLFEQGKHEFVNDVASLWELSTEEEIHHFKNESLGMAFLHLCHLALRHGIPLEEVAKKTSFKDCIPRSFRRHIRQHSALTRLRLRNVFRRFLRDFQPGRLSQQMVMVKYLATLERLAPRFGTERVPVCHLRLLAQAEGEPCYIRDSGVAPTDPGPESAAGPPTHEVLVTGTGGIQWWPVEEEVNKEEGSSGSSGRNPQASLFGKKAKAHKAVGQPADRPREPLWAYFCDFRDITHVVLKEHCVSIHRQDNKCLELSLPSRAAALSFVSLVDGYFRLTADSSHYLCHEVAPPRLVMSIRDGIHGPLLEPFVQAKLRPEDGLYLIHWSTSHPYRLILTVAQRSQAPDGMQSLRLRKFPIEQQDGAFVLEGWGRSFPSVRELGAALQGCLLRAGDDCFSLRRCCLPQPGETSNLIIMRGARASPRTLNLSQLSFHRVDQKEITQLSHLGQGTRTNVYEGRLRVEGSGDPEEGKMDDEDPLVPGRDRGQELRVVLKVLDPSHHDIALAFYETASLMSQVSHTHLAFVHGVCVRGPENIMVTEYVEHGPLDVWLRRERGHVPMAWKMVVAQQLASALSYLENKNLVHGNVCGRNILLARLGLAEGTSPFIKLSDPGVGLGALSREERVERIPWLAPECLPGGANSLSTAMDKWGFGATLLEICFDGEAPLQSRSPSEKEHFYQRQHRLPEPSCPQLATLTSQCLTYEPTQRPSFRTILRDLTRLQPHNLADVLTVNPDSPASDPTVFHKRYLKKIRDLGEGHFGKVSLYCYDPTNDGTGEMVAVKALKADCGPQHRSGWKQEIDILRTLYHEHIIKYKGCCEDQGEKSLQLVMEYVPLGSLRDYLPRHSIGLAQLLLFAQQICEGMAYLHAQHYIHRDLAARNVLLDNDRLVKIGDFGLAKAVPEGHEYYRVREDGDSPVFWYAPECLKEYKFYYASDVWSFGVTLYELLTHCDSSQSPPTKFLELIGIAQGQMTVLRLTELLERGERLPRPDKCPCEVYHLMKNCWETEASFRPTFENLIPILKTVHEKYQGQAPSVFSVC
T1 sequence (P23458 whole entry): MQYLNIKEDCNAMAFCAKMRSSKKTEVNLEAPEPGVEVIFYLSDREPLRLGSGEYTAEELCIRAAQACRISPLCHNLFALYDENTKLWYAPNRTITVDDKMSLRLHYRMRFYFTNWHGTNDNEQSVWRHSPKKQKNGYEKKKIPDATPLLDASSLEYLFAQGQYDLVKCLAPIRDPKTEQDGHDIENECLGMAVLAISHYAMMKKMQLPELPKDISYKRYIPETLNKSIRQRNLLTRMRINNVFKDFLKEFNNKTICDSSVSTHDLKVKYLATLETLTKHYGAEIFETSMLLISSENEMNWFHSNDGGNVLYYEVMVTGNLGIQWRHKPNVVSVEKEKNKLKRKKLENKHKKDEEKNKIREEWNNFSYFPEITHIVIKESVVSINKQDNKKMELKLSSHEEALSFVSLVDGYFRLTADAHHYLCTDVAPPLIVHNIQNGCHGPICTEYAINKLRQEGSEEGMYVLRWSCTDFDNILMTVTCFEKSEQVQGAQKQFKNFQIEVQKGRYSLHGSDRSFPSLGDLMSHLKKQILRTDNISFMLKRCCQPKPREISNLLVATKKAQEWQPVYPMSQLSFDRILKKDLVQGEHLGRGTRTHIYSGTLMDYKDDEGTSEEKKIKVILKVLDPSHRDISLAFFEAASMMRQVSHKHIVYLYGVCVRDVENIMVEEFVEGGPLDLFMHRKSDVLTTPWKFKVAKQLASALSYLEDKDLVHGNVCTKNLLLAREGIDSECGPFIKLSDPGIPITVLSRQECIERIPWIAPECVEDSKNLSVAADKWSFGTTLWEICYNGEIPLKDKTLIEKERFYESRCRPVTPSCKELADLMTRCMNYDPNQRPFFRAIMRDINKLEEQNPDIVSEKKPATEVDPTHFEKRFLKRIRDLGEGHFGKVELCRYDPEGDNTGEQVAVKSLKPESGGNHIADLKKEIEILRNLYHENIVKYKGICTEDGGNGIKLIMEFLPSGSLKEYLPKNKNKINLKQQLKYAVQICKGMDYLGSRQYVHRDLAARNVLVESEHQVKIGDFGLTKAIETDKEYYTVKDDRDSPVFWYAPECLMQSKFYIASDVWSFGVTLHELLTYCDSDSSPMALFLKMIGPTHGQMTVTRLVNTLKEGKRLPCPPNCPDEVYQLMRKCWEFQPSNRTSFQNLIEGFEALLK
T3 sequence (O60674 whole entry): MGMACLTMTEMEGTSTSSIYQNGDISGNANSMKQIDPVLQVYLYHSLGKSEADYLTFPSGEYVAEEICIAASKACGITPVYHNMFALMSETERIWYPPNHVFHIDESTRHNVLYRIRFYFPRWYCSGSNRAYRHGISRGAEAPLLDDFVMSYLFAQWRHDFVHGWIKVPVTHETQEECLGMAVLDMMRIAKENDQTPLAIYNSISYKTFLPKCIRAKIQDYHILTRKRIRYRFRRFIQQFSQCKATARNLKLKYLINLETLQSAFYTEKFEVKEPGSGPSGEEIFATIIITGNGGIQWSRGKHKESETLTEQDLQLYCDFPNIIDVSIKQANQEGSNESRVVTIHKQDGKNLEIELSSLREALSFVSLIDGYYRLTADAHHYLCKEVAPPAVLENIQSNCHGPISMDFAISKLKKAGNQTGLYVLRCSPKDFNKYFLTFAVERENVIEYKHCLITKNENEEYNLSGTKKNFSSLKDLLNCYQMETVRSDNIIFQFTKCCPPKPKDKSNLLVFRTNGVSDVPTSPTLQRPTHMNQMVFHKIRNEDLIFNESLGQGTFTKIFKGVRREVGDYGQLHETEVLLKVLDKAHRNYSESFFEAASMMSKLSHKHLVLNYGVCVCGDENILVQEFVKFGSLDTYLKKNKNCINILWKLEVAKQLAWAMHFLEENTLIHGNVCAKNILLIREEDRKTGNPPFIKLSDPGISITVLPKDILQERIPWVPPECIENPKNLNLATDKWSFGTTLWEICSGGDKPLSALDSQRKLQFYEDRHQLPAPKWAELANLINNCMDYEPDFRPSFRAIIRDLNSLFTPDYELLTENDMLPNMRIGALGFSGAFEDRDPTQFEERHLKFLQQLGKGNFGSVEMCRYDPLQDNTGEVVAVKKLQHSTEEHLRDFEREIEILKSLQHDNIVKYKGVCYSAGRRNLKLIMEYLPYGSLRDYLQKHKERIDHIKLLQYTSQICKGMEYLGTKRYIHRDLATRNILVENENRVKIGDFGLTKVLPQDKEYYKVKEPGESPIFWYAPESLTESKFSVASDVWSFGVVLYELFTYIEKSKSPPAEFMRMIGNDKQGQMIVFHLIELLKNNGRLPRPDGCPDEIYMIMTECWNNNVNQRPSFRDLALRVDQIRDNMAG
CYP2C19, sequence (P33261 whole entry): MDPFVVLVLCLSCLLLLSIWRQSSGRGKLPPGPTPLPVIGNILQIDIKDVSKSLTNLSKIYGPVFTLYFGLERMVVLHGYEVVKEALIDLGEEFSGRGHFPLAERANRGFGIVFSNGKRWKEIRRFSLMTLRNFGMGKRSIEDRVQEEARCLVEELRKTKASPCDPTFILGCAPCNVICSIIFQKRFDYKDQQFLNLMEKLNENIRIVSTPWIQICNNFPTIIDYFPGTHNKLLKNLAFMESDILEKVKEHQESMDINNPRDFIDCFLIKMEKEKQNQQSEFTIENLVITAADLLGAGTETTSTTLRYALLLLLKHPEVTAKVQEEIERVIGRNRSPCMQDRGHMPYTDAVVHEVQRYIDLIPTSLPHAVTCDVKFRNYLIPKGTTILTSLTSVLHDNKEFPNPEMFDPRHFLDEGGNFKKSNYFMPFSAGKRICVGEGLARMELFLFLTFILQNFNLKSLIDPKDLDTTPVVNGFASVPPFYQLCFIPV
CYP3A4, sequence (P08684 whole entry): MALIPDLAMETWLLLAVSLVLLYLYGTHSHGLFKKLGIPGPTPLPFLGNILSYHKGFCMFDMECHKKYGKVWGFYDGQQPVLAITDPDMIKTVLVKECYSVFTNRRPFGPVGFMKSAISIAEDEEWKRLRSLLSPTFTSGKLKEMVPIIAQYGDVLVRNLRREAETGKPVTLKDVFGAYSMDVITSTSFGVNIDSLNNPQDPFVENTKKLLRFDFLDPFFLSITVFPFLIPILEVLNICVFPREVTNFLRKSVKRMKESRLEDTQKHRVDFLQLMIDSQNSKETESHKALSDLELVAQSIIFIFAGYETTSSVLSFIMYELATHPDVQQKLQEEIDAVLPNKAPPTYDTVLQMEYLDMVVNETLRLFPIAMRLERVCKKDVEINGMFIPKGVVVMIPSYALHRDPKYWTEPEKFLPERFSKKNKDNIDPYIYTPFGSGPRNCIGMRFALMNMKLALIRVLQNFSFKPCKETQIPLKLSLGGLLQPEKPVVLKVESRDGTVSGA
CYP2D6, sequence (P10635 whole entry): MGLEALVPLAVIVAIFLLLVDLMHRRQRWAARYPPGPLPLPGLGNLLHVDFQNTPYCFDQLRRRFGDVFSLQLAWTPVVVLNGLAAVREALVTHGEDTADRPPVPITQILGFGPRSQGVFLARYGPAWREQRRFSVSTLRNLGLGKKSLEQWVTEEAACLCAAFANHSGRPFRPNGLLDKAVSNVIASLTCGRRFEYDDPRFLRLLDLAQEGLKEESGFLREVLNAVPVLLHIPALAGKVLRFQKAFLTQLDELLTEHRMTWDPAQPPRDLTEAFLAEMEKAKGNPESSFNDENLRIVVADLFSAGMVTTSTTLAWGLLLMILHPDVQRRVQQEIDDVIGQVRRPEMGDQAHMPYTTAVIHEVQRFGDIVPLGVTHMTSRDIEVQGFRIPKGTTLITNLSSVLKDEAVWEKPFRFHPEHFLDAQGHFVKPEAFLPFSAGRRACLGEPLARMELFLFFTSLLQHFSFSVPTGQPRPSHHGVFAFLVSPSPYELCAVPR

Structure (SMILES) | IC50 [1] | IC50 [2] | IC50 [3] | GI50 [13] | GI50 [15] | further results
CNC(=O)c1cnc2[nH]ccc2c1NC1CCN(c2ccccc2)CC1 | 160 nM | – | – | – | – | –
O=C(NC1CC1)c1cnc2[nH]ccc2c1NC1CCN(Cc2ccccc2)CC1 | 114 nM | 1350 nM | 232 nM | – | – | –
CNC(=O)c1cnc2[nH]ccc2c1NC1CCN(Cc2cccc(OC)c2)CC1 | 18 nM | 1210 nM | 469 nM | – | – | –
CNC(=O)c1cnc2[nH]ccc2c1N[C@@H]1CCN(Cc2ccc(Cl)cc2)[C@H](C)C1 (relative stereo) [listing 1 of 2 here] | – | – | – | – | – | remaining at 0.5 h, 10 µM (in vitro [4]): 80.6%; GI50 at 48 h (in vitro [5]): > 10000 nM; inhibition at 10 µM (CYP2C19): 75.7%; IC50 [6]: 106 nM; Papp B→A at 10 µM (in vitro [7]): 3.7 ×10⁻⁶ cm/s; inhibition at 10 µM (CYP2D6): 77.1%; inhibition at 10 µM (CYP3A4): 92.9%; remaining at 0.5 h, 10 µM (in vitro [8]): 11.6%; inhibition at 10 µM (CYP1A2): 74.8%; inhibition at 10 µM (CYP2C9): 70%; remaining at 2 h, 2 µM (in vitro [9]): 92.6%; Papp A→B at 10 µM (in vitro [10]): 1.9 ×10⁻⁶ cm/s; remaining at 0.5 h, 10 µM (in vitro [11]): 28.2%; remaining at 2 h, 2 µM (in vitro [12]): > 100%; GI50 (cells): 5790 nM
CNC(=O)c1cnc2[nH]ccc2c1N[C@@H]1CCN(Cc2cccc(Cl)c2)[C@@H](C)C1 (relative stereo) | – | – | – | 4750 nM | 232 nM | GI50 [14]: > 10000 nM
NC(=O)c1cnc2[nH]ccc2c1NC1CCN(Cc2ccccc2)CC1 | – | 110 nM | – | – | – | –
COc1cccc(CN2CC[C@@H](Nc3c(C(N)=O)cnc4[nH]ccc34)C[C@H]2C)c1 (relative stereo) | 17.2 nM | 157 nM | 57.6 nM | – | – | –
CNC(=O)c1cnc2[nH]ccc2c1N[C@@H]1CCN(Cc2cccc(OC)c2)C[C@@H]1F (relative stereo) | – | – | – | 9650 nM | 214 nM | –
O=C(Nc1nc2cccc(-c3ccc(CN4CCS(=O)(=O)CC4)cc3)n2n1)C1CC1 | – | – | – | 7190 nM | 798 nM | GI50 [14]: > 10000 nM; GI50 [16]: > 10000 nM; inhibition (LX2 [17]): Active
CNC(=O)c1cnc2[nH]ccc2c1NC1CCN(Cc2ccccc2OC)CC1 | 406 nM | 4180 nM | 7060 nM | – | – | –
O=C(NC1CCCC1)c1cnc2[nH]ccc2c1NC1CCN(Cc2ccccc2)CC1 | > 10000 nM | – | – | – | – | –
CNC(=O)c1cnc2[nH]ccc2c1N[C@@H]1CCN(Cc2ccc(Cl)cc2)[C@H](C)C1 (relative stereo) [listing 2 of 2 here] | – | – | – | 655 nM | 10.5 nM | inhibition (LX2 [18]): Active; GI50 [14]: 1360 nM; inhibition (LX2 [19]): Active; inhibition (LX2 [20]): Active; inhibition (LX2 [17]): Active
COc1cccc(CN2CCC(Nc3c(C(N)=O)cnc4[nH]ccc34)CC2)c1 | 195 nM | – | – | – | – | –
CNC(=O)c1cnc2[nH]ccc2c1NC1CCCN(Cc2cccc(OC)c2)CC1 (centres undefined) | 8.61 nM | 42.7 nM | 4.34 nM | – | – | –
COc1cccc(CN2CCC(Nc3c(C(=O)NC4CCCC4)cnc4[nH]ccc34)CC2)c1 | 3280 nM | > 10000 nM | > 10000 nM | – | – | –
C[C@@H]1C[C@H](Nc2c(C(N)=O)cnc3[nH]ccc23)CCN1Cc1cccc(Cl)c1 (relative stereo) | 6.87 nM | 48.4 nM | 93.8 nM | – | – | –
CNC(=O)c1cnc2[nH]ccc2c1N[C@@H]1CCN(Cc2ccc(Cl)cc2)[C@H](C)C1 | – | – | – | > 10000 nM | 2950 nM | GI50 [14]: > 10000 nM
CNC(=O)c1cnc2[nH]ccc2c1NC1CCN(Cc2ccc(OC)c(OC)c2)CC1 | 8400 nM | – | > 10000 nM | – | – | –
CNC(=O)c1cnc2[nH]ccc2c1NC1CC2CCC(C1)N2Cc1ccc(Cl)cc1 (centres undefined) | – | – | – | 1710 nM | 1800 nM | GI50 [14]: 3900 nM; GI50 [16]: 3950 nM
CNC(=O)c1cnc2[nH]ccc2c1NC1CCCN(Cc2ccccc2)CC1 (centres undefined) | – | 276 nM | 89.3 nM | – | – | –
CNC(=O)c1cnc2[nH]ccc2c1NC1CCCN(Cc2cccc(Cl)c2)CC1 (centres undefined) | – | – | – | > 10000 nM | 476 nM | GI50 [14]: > 10000 nM; GI50 [16]: 7690 nM
CNC(=O)c1cnc2[nH]ccc2c1N[C@H]1CCN(Cc2ccc(Cl)cc2)[C@@H](C)C1 | – | – | – | 475 nM | 6.4 nM | GI50 [14]: 1140 nM
CNC(=O)c1cnc2[nH]ccc2c1NC1CCN(Cc2ccccc2)CC1 | 65 nM | 586 nM | – | – | – | –
CNC(=O)c1cnc2[nH]ccc2c1NC1CCN(Cc2ccc(OC)cc2)CC1 | 202 nM | – | 3540 nM | – | – | –
CC(=O)Nc1cc(Oc2ccc3c(c2)CCN3C(=O)Nc2ccc(CN3CCN(C)CC3)c(C(F)(F)F)c2)ncn1 | – | – | – | 150 nM | 129 nM | GI50 [14]: 451 nM; GI50 [16]: 409 nM
COc1cccc(CN2CCC(Nc3c(C(=O)NC4CC4)cnc4[nH]ccc34)CC2)c1 | 2960 nM | > 10000 nM | > 10000 nM | – | – | –
CNC(=O)c1cnc2[nH]ccc2c1NC1CCN(Cc2cccc(C#N)c2)CC1 | 82 nM | 710 nM | 759 nM | – | – | –
